Test results reported in patent publication US12679812B2, “18F-labeled triazole containing PSMA inhibitors” (Cornell University, priority 2016, dated 2026).
Where two headings read alike, the source gives them in different places. Marks after values point to notes of the source that are not given here.

Assays:
[1] = target: T1, PSMA on LNCaP cells (Homo sapiens, UniProt Q04609); assay: Competitive binding assay against 99mTc-MIP-1427 for binding to PSMA on LNCaP cells; conditions: non-radioactive fluorine-containing ligands, 1 nM 99mTc-MIP-1427, 1 hour
T1 construct: host or cells: LNCaP
T1 sequence (Q04609 whole entry): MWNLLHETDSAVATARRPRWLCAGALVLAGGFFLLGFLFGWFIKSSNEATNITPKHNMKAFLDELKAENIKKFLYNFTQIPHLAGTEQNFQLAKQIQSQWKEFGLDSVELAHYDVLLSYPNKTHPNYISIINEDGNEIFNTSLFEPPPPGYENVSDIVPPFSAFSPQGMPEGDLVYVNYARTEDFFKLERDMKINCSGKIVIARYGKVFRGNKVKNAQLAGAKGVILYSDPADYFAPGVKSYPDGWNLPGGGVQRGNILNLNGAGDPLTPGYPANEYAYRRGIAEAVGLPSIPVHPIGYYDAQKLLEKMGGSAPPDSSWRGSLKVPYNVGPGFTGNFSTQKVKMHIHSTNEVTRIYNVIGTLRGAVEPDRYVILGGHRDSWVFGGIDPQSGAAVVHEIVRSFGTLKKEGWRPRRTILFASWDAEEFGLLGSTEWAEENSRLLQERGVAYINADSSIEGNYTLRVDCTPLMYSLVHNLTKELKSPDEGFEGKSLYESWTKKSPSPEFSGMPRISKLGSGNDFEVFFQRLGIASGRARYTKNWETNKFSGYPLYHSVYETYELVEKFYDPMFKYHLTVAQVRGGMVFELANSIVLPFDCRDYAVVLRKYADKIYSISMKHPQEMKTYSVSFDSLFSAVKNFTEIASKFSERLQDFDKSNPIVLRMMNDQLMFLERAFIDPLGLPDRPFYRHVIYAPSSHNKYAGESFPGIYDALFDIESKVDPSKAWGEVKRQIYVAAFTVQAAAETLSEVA
Experimental: Cell Culture. The human prostate cancer cell line, LNCaP, was obtained from the American Type Culture Collection. Cell culture supplies were from Invitrogen unless otherwise noted. LNCaP cells were maintained in RPMI-1640 medium supplemented with 10% fetal bovine serum (Hyclone), 4 mM L-glutamine, 1 mM sodium pyruvate, 10 mM N-2-hydroxyethylpiperazine-N-2-ethanesulfonic acid (HEPES), 2.5 mg/mL D-glucose, and 50 μg/mL gentamicin in a humidified incubator at 37° C./5% C02. Cells were removed from flasks for passage or for transfer to 12-well assay plates by incubating them with 0.25% trypsin/ethylenediaminetetraacetic acid (EDTA).
In vitro determination of IC50. IC50 values of the non-radioactive fluorine-containing ligands were determined by screening in a multi-concentration competitive binding assay against ^99mTc-((7S,12S,16S)-1-(1-(carboxymethyl)-1H-imidazol-2-yl)-2-((1-(carboxymethyl)-1H-imidazol-2-yl)methyl)-9,14-dioxo-2,8,13,15-tetraazaoctadecane-7,12,16,18-tetracarboxylic acid technetium tricarbonyl complex) (^99mTc-MIP-1427) for binding to PSMA on LNCaP cells, according to methods previously described. See Hillier S M, Maresca K P, Lu G, Merkin R D, Marquis J C, Zimmerman C N, Eckelman W C, Joyal J L, Babich J W. 99mTc-Labeled Small-Molecule Inhibitors of Prostate-Specific Membrane Antigen for Molecular Imaging of Prostate Cancer. J. Nucl. Med. 2013, 54, 1369-1376, incorporated herein by reference. The LNCaP cells were plated 48 hours prior to the experiment to achieve a density of approximately 5×10^5 cells/well (in triplicate) in RPMI-1640 medium supplemented with 0.25% bovine serum albumin prior to performing the assay. LNCaP cells were incubated for 1 hour with 1 nM ^99mTc-MIP-1427 in serum free RPMI-1640 medium in the presence of 1-10,000 nM test compounds. Radioactive incubation media was then removed by pipette and the cells were washed twice using 1 mL ice-cold HEPES buffer. Cells were harvested from the plates and transferred to tubes for radioactive counting using a Packard Cobra II Gamma Counter. IC50 values were determined by non-linear regression using GraphPad Prism software.

[2] = test system: LNCaP xenograft tumor; assay: microPET/CT imaging of LNCaP xenograft tumor-bearing mice; format: in vivo; conditions: for Max. LNCaP Tumor Uptake: image derived calculation of tumor uptake (microPET/CT), at time of maximum uptake; for Time p.i. of max. LNCaP tumor uptake: microPET/CT imaging at 1, 2, 4, 6 h
Experimental: (§1) Inoculation of mice with xenografts. All animal studies were approved by the Institutional Animal Care and Use Committee of Weill Cornell Medicine and were undertaken in accordance with the guidelines set forth by the USPHS Policy on Humane Care and Use of Laboratory Animals. Animals were housed under standard conditions in approved facilities with 12 h light/dark cycles. Food and water was provided ad libitum throughout the course of the studies. Male inbred athymic nu/nu mice were purchased from The Jackson Laboratory. For inoculation in mice, LNCaP cells were suspended at 4×10^7 cells/mL in a 1:1 mixture of PBS:Matrigel (BD Biosciences). Each mouse was injected in the left flank with 0.25 mL of the cell suspension. The mice were imaged when the tumors reached approximately 200-400 mm^3, while biodistributions were conducted when tumors were in the range 100-400 mm^3.
Imaging. […] Specific activity was greater than […]. The mice were imaged by pPET/CT (Inveon™; Siemens Medical Solutions, Inc.) at 1 h, 2 h, 4 h, and 6 h post-injection ([^18F]fluorinated compounds) or 1 h and 3 h post-injection ([^68Ga]Ga-PSMA-HBED-CC). Total acquisition time was thirty minutes, and a CT scan was obtained either immediately before or immediately after the acquisition for both anatomical co-registration and attenuation correction. The data were reconstructed using the commercial Inveon™ software supplied by the vendor. Tumor uptake was estimated by drawing a region of interest (ROI).

[3] = test system: LNCaP xenograft tumor; assay: Ex vivo biodistribution in LNCaP xenograft tumor-bearing mice; conditions: for Tumor uptake / Max. LNCaP Tumor Uptake: n=5; for Tumor uptake relative to [68Ga]Ga-PSMA-HBED-CC: at the time of maximum tumor uptake; for Time p.i. of max. LNCaP tumor uptake: biodistribution at 1, 2, 4 h; for Max. LNCaP Tumor Uptake: biodistribution
Experimental: as §1
Biodistribution. LNCaP xenograft tumor-bearing mice (n=5 per time point) were injected via the tail vein with a bolus injection of 370 kBq (10 μCi) of either [^18F]RPS-040 or [^18F]RPS-041. The specific activity of the compounds was […], respectively. The mice were euthanized by asphyxiation under isofluorane at 1 h, 2 h and 4 h post injection. An additional set of mice (n=5) was co-administered [^18F]RPS-040 (370 kBq; 10 μCi) and 2-PMPA (approx. 250 μg; 10 mg/kg) and sacrificed at 1 h post injection to determine the uptake specificity. A full biodistribution study was conducted on all mice, and tissues were excised, weighed and counted in an automated γ-counter. Tissue time-activity values were expressed as percentage injected dose per gram of tissue (% ID/g). Statistical comparisons were performed using the standard Student's t-test for a 95% confidence interval.

[4] = target: T2, PSMA (Homo sapiens, UniProt Q04609); conditions: for PSMA, competitive binding assay using LNCaP cells, literature value, cited from earlier work
T2 construct: host or cells: LNCaP
T2 sequence (Q04609 whole entry): as above

[5] = test system: LNCaP tumor; conditions: reported study, cited from earlier work; for Tumor uptake (Max. LNCaP Tumor Uptake): 3 h post injection
[6] = 1 h post injection, co-administered with 2-PMPA (blocked)
[7] = listed as [^68Ga]Ga-PSMA-HBED-CC

Compound | IC50 [1] | Max. LNCaP Tumor Uptake [2] | Tumor-to-blood ratio ([3]; 1 h post injection) | Tumor-to-blood ratio relative to [68Ga]Ga-PSMA-HBED-CC ([3]; 1 h post injection) | Tumor-to-kidney ratio (contrast) relative to [68Ga]Ga-PSMA-HBED-CC ([3]; 1 h post injection) | Uptake in the kidneys ([3]; 2 h post injection) | Uptake in the liver ([3]; 2 h post injection) | Uptake in the spleen ([3]; 2 h post injection) | Tumor-to-blood ratio ([3]; 4 h post injection) | Tumor uptake relative to [68Ga]Ga-PSMA-HBED-CC [3] | Time p.i. of max. LNCaP tumor uptake [3] | Max. LNCaP Tumor Uptake ([3]; 2 h post injection) | Time p.i. of max. LNCaP tumor uptake [2] | other results
O=C(O)CC[C@H](NC(=O)N[C@@H](CCCCNC(=O)Nc1cccc(-c2cn(CCF)nn2)c1)C(=O)O)C(=O)O [RPS-040, (((S)-1-Carboxy-5-(3-(3-(1-(2-fluoroethyl)-1H-1,2,3-triazol-4-yl)phenyl)ureido)pentyl)carbamoyl)-L-glutamic acid] | 7 nM | 14.30 % ID/g | 28.8±8.06 | three-fold greater | ten | 60.94±8.06 % ID/g | 4.72±0.93 % ID/g | 3.23±1.26 % ID/g | 92.93±75.67 | more than two-fold greater | 2 h | 14.30 ± 2.49^ % ID/g |  | Uptake in the kidneys [3, 6]: 5.95±1.65 % ID/g; Uptake in the spleen [3, 6]: 0.32±0.05 % ID/g; Tumor uptake [3, 6]: 1.75±0.15 % ID/g; Uptake in the kidneys ([3]; 1 h post injection, unblocked): 74.24±10.71 % ID/g; Uptake in the spleen ([3]; 1 h post injection, unblocked): 4.97±1.55 % ID/g; Tumor uptake ([3]; 1 h post injection, unblocked): 12.69±1.56 % ID/g; Max. LNCaP Tumor Uptake ([3]; 2 h post injection, listed as [^18F]RPS-040): 14.30±2.49 % ID/g
O=C(O)CC[C@H](NC(=O)N[C@@H](CCCCNC(=O)Nc1ccc(-c2cn(CCF)nn2)cc1)C(=O)O)C(=O)O [RPS-041, (((S)-1-Carboxy-5-(3-(4-(1-(2-fluoroethyl)-1H-1,2,3-triazol-4-yl)phenyl)ureido)pentyl)carbamoyl)-L-glutamic acid] | 3.2 nM | 12.51 % ID/g | 20.78±7.87 | more than two-fold | twelve-fold greater | 23.93±5.45 % ID/g | 2.51±0.21 % ID/g | 1.13±0.47 % ID/g | 118.4±69.4 | nearly two-fold greater | 2 h | 10.86 ± 1.03^ % ID/g |  | Contrast (tumor-to-background) relative to [18F]RPS-040 ([3]; 2 h post injection): two-fold greater; Max. LNCaP Tumor Uptake ([3]; 2 h post injection, listed as [^18F]RPS-041): 10.86±1.03 % ID/g
O=C(O)CC[C@H](NC(=O)N[C@@H](CCCCNC(=O)Nc1ccccc1-c1cn(CCF)nn1)C(=O)O)C(=O)O [RPS-042, (((S)-1-Carboxy-5-(3-(2-(1-(2-fluoroethyl)-1H-1,2,3-triazol-4-yl)phenyl)ureido)pentyl)carbamoyl)-L-glutamic acid] | 10.2 nM | 10.06 ± 1.33^c % ID/g |  |  |  |  |  |  |  |  |  |  | 2 h | Route of clearance / excretion ([2]; from microPET/CT images): clearance via the hepatobiliary pathway in addition to renal clearance
O=C(O)CC[C@H](NC(=O)N[C@@H](CCCCNC(=O)Nc1cccc(OCc2cn(CCF)nn2)c1)C(=O)O)C(=O)O [RPS-043, (((S)-1-Carboxy-5-(3-(3-((1-(2-fluoroethyl)-1H-1,2,3-triazol-4-yl)methoxy)phenyl)ureido)pentyl)carbamoyl)-L-glutamic acid] | 36.5 nM | 9.04 ± 1.88^c % ID/g |  |  |  |  |  |  |  |  |  |  | 2 h | 
O=C([O-])CN(CCN(CC(=O)[O-])Cc1cc(CCC(=O)NCCCCCC(=O)NCCCC[C@H](NC(=O)N[C@@H](CCC(=O)O)C(=O)O)C(=O)O)ccc1[O-])Cc1cc(CCC(=O)O)ccc1[O-].[68Ga+3].[OH3+] [^68Ga-PSMA-HBED-CC] |  |  |  |  |  |  |  |  |  |  |  |  |  | Uptake in the liver or intestine ([2]; microPET/CT, 1 h post injection): No uptake; IC50 [4]: 24.3 ± 2 nM; IC50 [4, 7]: ~24 nM; Activity in the kidney ([5]; 1 h): 314.44±90.61 % ID/g; Activity in the spleen ([5]; 1 h): 31.73±14.09 % ID/g; Tumor uptake ([5]; 1 h post injection): 5.81±1.67 % ID/g; Activity in the kidney ([5]; 3 h): 207.97±58.38 % ID/g; Activity in the spleen ([5]; 3 h): 13.85±3.53 % ID/g; Tumor uptake (Max. LNCaP Tumor Uptake) [5]: 6.27 ± 1.44 % ID/g; Tumor uptake (Max. LNCaP Tumor Uptake) [5, 7]: 6.27±1.44 % ID/g; Time p.i. of max. LNCaP tumor uptake ([5]; 1 h and 3 h): 3 h
